Measurements taken from patent publication US20240217957A1, “HETEROCYCLIC COMPOUND AND USE THEREOF” (TAKEDA PHARMACEUTICAL COMPANY LIMITED, priority 2022, published 2024).

Target: T1, human OX2 receptor (Homo sapiens, UniProt O43614)
T1 construct: expressed in transfected cells
T1 sequence (O43614 1-444): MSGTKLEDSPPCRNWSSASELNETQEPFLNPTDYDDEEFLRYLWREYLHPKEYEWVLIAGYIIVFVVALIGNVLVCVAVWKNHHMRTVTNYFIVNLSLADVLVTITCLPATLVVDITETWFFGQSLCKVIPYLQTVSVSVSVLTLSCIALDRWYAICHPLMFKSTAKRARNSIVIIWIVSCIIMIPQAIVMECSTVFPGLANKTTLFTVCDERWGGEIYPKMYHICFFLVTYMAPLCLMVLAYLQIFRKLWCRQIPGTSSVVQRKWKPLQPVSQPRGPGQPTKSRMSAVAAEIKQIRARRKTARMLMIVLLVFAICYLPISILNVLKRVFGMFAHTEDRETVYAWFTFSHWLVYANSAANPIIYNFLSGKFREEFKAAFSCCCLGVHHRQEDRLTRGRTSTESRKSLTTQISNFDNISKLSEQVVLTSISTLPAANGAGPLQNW
Test: Measurement of orexin type 2 receptor agonist activity (calcium fluorescence, Fluo-4 AM, FDSS)
Assay type: cell-based
Details: compound at 3 μM; CHO cells forcibly expressing human OX2 receptor; DMSO = 0%, 10 nM orexin A (human) = 100%
Outline: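 CHO-K1 cells stably expressing human OX2 receptor (residues 1-444) loaded with Fluo-4 AM in HBSS/20 mM HEPES/0.1% BSA with probenecid, 30 min at 37° C. then 30 min at room temperature. After compound addition, calcium fluorescence read for 1 min 40 s; activity (%) scaled to DMSO (0%) and 10 nM orexin A (100%).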

| Compound | OX2R agonist activity (3 μM, %) [%] |
| --- | --- |
| Cc1cnc(C2(CF)CC(N3C[C@@H](NS(C)(=O)=O)C(F)(F)C3)=NO2)c(-c2c(F)cccc2F)n1 (stereo partly drawn) [Example 104, N-[(3R)-1-{5-[3-(2,6-difluorophenyl)-5-methylpyrazin-2-yl]-5-(fluoromethyl)-4,5-dihydro-1,2-oxazol-3-yl}-4,4-difluoropyrrolidin-3-yl]methanesulfonamide] | 102 |
| Cc1cnc(C2(CF)CC(N3C[C@H](F)[C@H](NS(C)(=O)=O)C3)=NO2)c(-c2c(F)cccc2F)n1 (stereo partly drawn) [Example 105, N-[(3R,4S)-1-{5-[3-(2,6-difluorophenyl)-5-methylpyrazin-2-yl]-5-(fluoromethyl)-4,5-dihydro-1,2-oxazol-3-yl}-4-fluoropyrrolidin-3-yl]methanesulfonamide] | 97 |
| Cc1ccc(C2CC(N3C[C@@H](NS(C)(=O)=O)C(F)(F)C3)=NO2)c(-c2ncc(F)cc2F)c1 (stereo partly drawn) [Example 106, N-[(3R)-1-{5-[2-(3,5-difluoropyridin-2-yl)-4-methylphenyl]-4,5-dihydro-1,2-oxazol-3-yl}-4,4-difluoropyrrolidin-3-yl]methanesulfonamide] | 108 |
| Cc1cnc(C2(CF)CC(N3C[C@@H](NS(C)(=O)=O)C(F)(F)C3)=NO2)c(-c2c(F)cccc2F)c1 (stereo partly drawn) [Example 108, N-[(3R)-1-{5-[3-(2,6-difluorophenyl)-5-methylpyridin-2-yl]-5-(fluoromethyl)-4,5-dihydro-1,2-oxazol-3-yl}-4,4-difluoropyrrolidin-3-yl]methanesulfonamide] | 105 |
| Cc1cnc(C2(CF)CC(N3C[C@H](F)[C@H](NS(C)(=O)=O)C3)=NO2)c(-c2c(F)cc(F)cc2F)c1 (stereo partly drawn) [Example 110, N-[(3R,4S)-4-fluoro-1-{5-(fluoromethyl)-5-[5-methyl-3-(2,4,6-trifluorophenyl)pyridin-2-yl]-4,5-dihydro-1,2-oxazol-3-yl}pyrrolidin-3-yl]methanesulfonamide] | 100 |
| CS(=O)(=O)N[C@@H]1CN(C2=NOC(c3ccc(F)cc3-c3c(F)cccc3F)C2)CC1(F)F (stereo partly drawn) [Example 111, N-{(3R)-4,4-difluoro-1-[5-(2′,5,6′-trifluoro[1,1′-biphenyl]-2-yl)-4,5-dihydro-1,2-oxazol-3-yl]pyrrolidin-3-yl}methanesulfonamide] | 102 |
| CS(=O)(=O)N[C@@H]1CN(C2=NOC(c3ncc(Cl)cc3-c3c(F)cc(F)cc3F)C2)C[C@@H]1F (stereo partly drawn) [Example 112, N-[(3R,4S)-1-{5-[5-chloro-3-(2,4,6-trifluorophenyl)pyridin-2-yl]-4,5-dihydro-1,2-oxazol-3-yl}-4-fluoropyrrolidin-3-yl]methanesulfonamide] | 98 |
| CS(=O)(=O)N[C@@H]1CN(C2=NOC(CF)(c3ncc(F)cc3-c3c(F)cc(F)cc3F)C2)C[C@@H]1F (stereo partly drawn) [Example 113, N-[(3R,4S)-4-fluoro-1-{5-(fluoromethyl)-5-[5-fluoro-3-(2,4,6-trifluorophenyl)pyridin-2-yl]-4,5-dihydro-1,2-oxazol-3-yl}pyrrolidin-3-yl]methanesulfonamide] | 100 |
| Cc1ccc(C2CC(N3C[C@@H](NS(C)(=O)=O)C(F)(F)C3)=NO2)c(-c2c(F)cccc2F)n1 (stereo partly drawn) [Example 114, N-[(3R)-1-{5-[2-(2,6-difluorophenyl)-6-methylpyridin-3-yl]-4,5-dihydro-1,2-oxazol-3-yl}-4,4-difluoropyrrolidin-3-yl]methanesulfonamide] | 87 |
| CCS(=O)(=O)N[C@@H]1CN(C2=NOC(CF)(c3ncc(Cl)cc3-c3c(F)cccc3F)C2)C[C@@H]1F (stereo partly drawn) [Example 115, N-[(3R,4S)-1-{5-[5-chloro-3-(2,6-difluorophenyl)pyridin-2-yl]-5-(fluoromethyl)-4,5-dihydro-1,2-oxazol-3-yl}-4-fluoropyrrolidin-3-yl]ethanesulfonamide] | 100 |
| CS(=O)(=O)N[C@@H]1CN(C2=NOC(CF)(c3ncc(F)cc3-c3c(F)cccc3F)C2)C[C@@H]1F (stereo partly drawn) [Example 116, N-[(3R,4S)-1-{5-[3-(2,6-difluorophenyl)-5-fluoropyridin-2-yl]-5-(fluoromethyl)-4,5-dihydro-1,2-oxazol-3-yl}-4-fluoropyrrolidin-3-yl]methanesulfonamide] | 100 |
| CC1(c2ncc(F)cc2-c2c(F)cccc2F)CC(N2C[C@H](F)[C@H](NS(C)(=O)=O)C2)=NO1 (stereo partly drawn) [Example 118, N-[(3R,4S)-1-{5-[3-(2,6-difluorophenyl)-5-fluoropyridin-2-yl]-5-methyl-4,5-dihydro-1,2-oxazol-3-yl}-4-fluoropyrrolidin-3-yl]methanesulfonamide] | 100 |
| CS(=O)(=O)N[C@@H]1CN(C2=NOC(c3ccc(F)cc3-c3c(F)cccc3F)C2)C[C@@H]1F (stereo partly drawn) [Example 119, N-{(3R,4S)-4-fluoro-1-[5-(2′,5,6′-trifluoro[1,1′-biphenyl]-2-yl)-4,5-dihydro-1,2-oxazol-3-yl]pyrrolidin-3-yl}methanesulfonamide] | 101 |

Continued, values first:

| OX2R agonist activity (3 μM, %) [%] | Compound |
| --- | --- |
| 102 | CN(C)S(=O)(=O)N[C@@H]1CN(C2=NOC(c3ncc(F)cc3-c3c(F)cc(F)cc3F)C2)C[C@@H]1F (stereo partly drawn) [Example 120, N′-[(3R,4S)-4-fluoro-1-{5-[5-fluoro-3-(2,4,6-trifluorophenyl)pyridin-2-yl]-4,5-dihydro-1,2-oxazol-3-yl}pyrrolidin-3-yl]-N,N-dimethylsulfuric diamide] |
| 98 | CN(C)S(=O)(=O)N[C@@H]1CN(C2=NOC(c3ncc(Cl)cc3-c3c(F)cccc3F)C2)C[C@@H]1F (stereo partly drawn) [Example 121, N′-[(3R,4S)-1-{5-[5-chloro-3-(2,6-difluorophenyl)pyridin-2-yl]-4,5-dihydro-1,2-oxazol-3-yl}-4-fluoropyrrolidin-3-yl]-N,N-dimethylsulfuric diamide] |
| 102 | CC1(c2ncc(F)cc2-c2c(F)cccc2F)CC(N2CC[C@H](NS(C)(=O)=O)C2)=NO1 (stereo partly drawn) [Example 122, N-[(3S)-1-{5-[3-(2,6-difluorophenyl)-5-fluoropyridin-2-yl]-5-methyl-4,5-dihydro-1,2-oxazol-3-yl}pyrrolidin-3-yl]methanesulfonamide] |
| 100 | CN(C)S(=O)(=O)N[C@@H]1CN(C2=NOC(c3ccc(Cl)cc3-c3ncc(F)cc3F)C2)C[C@@H]1F (stereo partly drawn) [Example 123, N′-[(3R,4S)-1-{5-[4-chloro-2-(3,5-difluoropyridin-2-yl)phenyl]-4,5-dihydro-1,2-oxazol-3-yl}-4-fluoropyrrolidin-3-yl]-N,N-dimethylsulfuric diamide] |
| 97 | Cc1ccc(C2CC(N3C[C@H](F)[C@H](NS(C)(=O)=O)C3)=NO2)c(-c2ncc(F)cc2F)c1 (stereo partly drawn) [Example 124, N-[(3R,4S)-1-{5-[2-(3,5-difluoropyridin-2-yl)-4-methylphenyl]-4,5-dihydro-1,2-oxazol-3-yl}-4-fluoropyrrolidin-3-yl]methanesulfonamide] |
| 104 | Cc1ccc(C2CC(N3C[C@H](F)[C@H](NS(=O)(=O)N(C)C)C3)=NO2)c(-c2ncc(F)cc2F)c1 (stereo partly drawn) [Example 125, N′-[(3R,4S)-1-{5-[2-(3,5-difluoropyridin-2-yl)-4-methylphenyl]-4,5-dihydro-1,2-oxazol-3-yl}-4-fluoropyrrolidin-3-yl]-N,N-dimethylsulfuric diamide] |
| 98 | CS(=O)(=O)N[C@@H]1CN(C2=NOC(c3ncc(F)cc3-c3c(F)cccc3F)(C(F)F)C2)CC1(F)F (stereo partly drawn) [Example 126, N-[(3R)-1-{5-(difluoromethyl)-5-[3-(2,6-difluorophenyl)-5-fluoropyridin-2-yl]-4,5-dihydro-1,2-oxazol-3-yl}-4,4-difluoropyrrolidin-3-yl]methanesulfonamide] |
| 100 | Cc1cc(-c2c(F)cccc2F)c(C2CC(N3C[C@@H](NS(C)(=O)=O)C(F)(F)C3)=NO2)cn1 (stereo partly drawn) [Example 127, N-[(3R)-1-{5-[4-(2,6-difluorophenyl)-6-methylpyridin-3-yl]-4,5-dihydro-1,2-oxazol-3-yl}-4,4-difluoropyrrolidin-3-yl]methanesulfonamide] |
| 105 | O=S(=O)(CF)N[C@@H]1CN(C2=NO[C@H](c3ncc(F)cc3-c3c(F)cc(F)cc3F)C2)CC1(F)F [Example 128, N-[(3R)-4,4-difluoro-1-{(5S)-5-[5-fluoro-3-(2,4,6-trifluorophenyl)pyridin-2-yl]-4,5-dihydro-1,2-oxazol-3-yl}pyrrolidin-3-yl]-1-fluoromethanesulfonamide] |
| 102 | CS(=O)(=O)N[C@@H]1CN(C2=NOC(CF)(c3ncc(Cl)cc3-c3c(F)cccc3F)C2)C[C@@H]1F (stereo partly drawn) [Example 129, N-[(3R,4S)-1-{5-[5-chloro-3-(2,6-difluorophenyl)pyridin-2-yl]-5-(fluoromethyl)-4,5-dihydro-1,2-oxazol-3-yl}-4-fluoropyrrolidin-3-yl]methanesulfonamide] |
